{"source": "patent US11110171B2", "about": "“PD-1 related cancer therapy” (New York University, priority 2017, dated 2021)", "key": {"[1]": {"tested_on": "phosphorylation of ERK, PLCγ and ZAP70 in Jurkat T cells", "experiment": "Immunoblot of PD-1 signaling in Jurkat T cells stimulated with anti-CD3 or anti-CD3+PDL2 beads", "type": "cell-based, human", "conditions": "SAP-deficient (SAP KD) Jurkat T cells, SHP099 10 uM for one hour, anti-CD3+PDL2 beads 5 minutes"}, "[2]": {"tested_on": "IL-2 secretion of human CD3+ T cells", "experiment": "IL-2 secretion (ELISA) of primary human CD3+ T cells stimulated with anti-CD3 or anti-CD3+PDL2 beads", "type": "cell-based", "conditions": "control or SAP KD siRNA, anti-CD3+PDL2 beads 24 hours", "procedure": "FIG. 13. (a) Jurkat T cells were transfected with non-targeting siRNA control and siRNA to SAP, followed by immunoblot analysis. […] Media was harvested and IL-2 levels were measured (ELISA). * P<0.05, NS not significant, n=3, unpaired t test. (c) control vector or SAP-expressing vector for 48 hours and samples were analyzed for SAP expression by immunoblotting. (d) Cell expressing SAP were stimulated overnight and CD69 expression levels were recorded by FACS. (e) T cells from XLP patients and healthy controls were tested for PD-1 expression by FACS analysis. For FIG. 7b 13b, the bars from left to right for each set are: Control, CD3, and CD3+PDL2.\nBy contrast, overexpression of SAP-GFP (FIG. 13c and FIG. 5b) abrogated the ability of PD-1 to inhibit anti-CD3-induced IL-2 secretion (FIG. 5c), CD69 up regulation (FIG. 5d and FIG. 13d), IFN-γ release (FIG. 5e), and T cell adhesion to fibronectin-coated wells (FIG. 5f). Thus, SAP appears to be a negative regulator of PD-1 signaling and function in T cells.\nPrimary human T cells were isolated from whole blood using RosetteSep (Stemcell) followed by Ficoll-Paque, according to the manufacturer's instructions. The cells were maintained in enriched media (HEPES 25 mM, Sodium pyruvate 100 mM, Nonessential amino acid, and L-Glutamine) at 5% C02 and 37° C. […]"}}, "data": [{"smiles": "CC1(N)CCN(c2cnc(-c3cccc(Cl)c3Cl)c(N)n2)CC1.Cl", "note": "[SHP099]", "values": [{"measurement": "PD-1's ability to inhibit the phosphorylation of ERK, PLCγ and ZAP70", "setting": "[1]", "value": "abrogated"}, {"measurement": "PD-1's ability to inhibit IL-2 secretion", "setting": "[2]", "value": "abrogation"}]}]}
